Laboratory results taken from patent publication US20190008803A1, “COMBINATIONS OF OPIOID RECEPTOR LIGANDS AND CYTOCHROME P450 INHIBITORS” (TREVENA, INC., priority 2015, published 2019).

Tests used:
CYP2D6 = target: T1, CYP2D6 (Homo sapiens, UniProt P10635); assay: Metabolic stability in human liver microsomes with/without quinidine: percent contribution of CYP2D6; assay type: in vitro ADME; conditions: human liver microsomes 0.25 mg/mL, test compound 1 μM, quinidine 1 μM; from intrinsic clearance without and with inhibitor
T1 construct: incubations of test compound (1 μM) with human liver microsomes (0.25 mg/mL); from tissue; host or cells: human liver microsomes
T1 sequence (P10635 whole entry): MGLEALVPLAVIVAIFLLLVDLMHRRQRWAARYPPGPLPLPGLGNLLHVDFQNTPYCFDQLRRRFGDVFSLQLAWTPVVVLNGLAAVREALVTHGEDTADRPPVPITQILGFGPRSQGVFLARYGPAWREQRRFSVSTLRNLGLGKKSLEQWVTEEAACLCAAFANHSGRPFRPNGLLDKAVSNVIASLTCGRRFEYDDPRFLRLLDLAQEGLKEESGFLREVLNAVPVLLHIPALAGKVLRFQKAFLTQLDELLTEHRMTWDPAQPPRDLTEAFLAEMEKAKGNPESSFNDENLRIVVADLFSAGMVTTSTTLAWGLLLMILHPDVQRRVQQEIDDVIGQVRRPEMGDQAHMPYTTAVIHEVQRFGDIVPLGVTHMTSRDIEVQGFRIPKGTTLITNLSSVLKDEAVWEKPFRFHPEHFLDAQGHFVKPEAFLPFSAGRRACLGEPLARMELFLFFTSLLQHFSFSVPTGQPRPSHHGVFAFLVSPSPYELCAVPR
Experimental: (§1) Compounds 141, 208, 246, 265, 267, 271 or 277 were analyzed to determine whether they are metabolized by CYP2D6 and/and/or CYP3A4. The studies were designed to evaluate the metabolic stability of compounds in human liver microsomes for the purpose of determining the percent contribution of CYP2D6 and CYP3A4 to their in vitro metabolism. […] Incubations are performed with or without CYP specific inhibitors. Incubations with the CYP2D6 direct inhibitor, quinidine (1 μM) quantify the percent contribution of CYP2D6 to metabolism. Incubations with the CYP3A4 metabolism-dependent inhibitor, troleandomycin (50 μM), define the percent contribution of CYP3A4. The percentage of CYP2D6 and CYP3A4 contribution is calculated using intrinsic clearance values in the absence and presence of the specific CYP inhibitor (Gibbs et al. 2006).

CYP3A4 = target: T2, CYP3A4 (Homo sapiens, UniProt P08684); assay: Metabolic stability in human liver microsomes with/without troleandomycin: percent contribution of CYP3A4; assay type: in vitro ADME; conditions: human liver microsomes 0.25 mg/mL, test compound 1 μM, troleandomycin 50 μM; from intrinsic clearance without and with inhibitor
T2 construct: incubations of test compound (1 μM) with human liver microsomes (0.25 mg/mL); from tissue; host or cells: human liver microsomes
T2 sequence (P08684 whole entry): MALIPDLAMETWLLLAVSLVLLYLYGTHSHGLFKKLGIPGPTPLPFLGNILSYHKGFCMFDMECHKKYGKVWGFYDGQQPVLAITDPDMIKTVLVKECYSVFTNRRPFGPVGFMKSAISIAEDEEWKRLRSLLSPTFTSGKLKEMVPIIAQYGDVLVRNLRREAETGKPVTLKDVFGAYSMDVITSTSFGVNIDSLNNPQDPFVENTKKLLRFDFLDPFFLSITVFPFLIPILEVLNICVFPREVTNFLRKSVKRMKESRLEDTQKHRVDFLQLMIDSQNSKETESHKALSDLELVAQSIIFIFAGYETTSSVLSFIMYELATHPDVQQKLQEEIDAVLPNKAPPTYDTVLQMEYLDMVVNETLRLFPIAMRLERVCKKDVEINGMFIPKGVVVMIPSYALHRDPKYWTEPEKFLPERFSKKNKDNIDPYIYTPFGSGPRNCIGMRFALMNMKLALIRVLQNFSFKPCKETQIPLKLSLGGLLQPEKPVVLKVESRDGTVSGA
Experimental: as §1

mice = assay: Hot plate assay for antinociception, subcutaneous dosing; assay type: in vivo, mouse; conditions: for ED50: 0.5 h, re-tested 30 min after drug administration; for ED50 / analgesic effect in the mouse hot plate assay compared to morphine: SC
Experimental: The hot plate assay is adapted from the procedure originally described by O'Callaghan and Holtzman (JPET, 192, 497, 1975) and is commonly used to determine the potential analgesic efficacy of opioid agonists. The antinociceptive effect of the composition(s) described herein in the hot plate is expressed in % MPE (Maximum Possible Effect).
Rats (175-250 g) or mice (20-30 g) acclimated to the vivarium for at least 48 hr prior to behavioral testing. Test drugs were administered by the subcutaneous (SC) route. Animals were placed on the hot plate, which the temperature was set at 50-56° C., depending on the in vitro potency of the compound. A cutoff time of 30-60 seconds was used depending on the temperature of the hot plate so that the paws of the animal displaying analgesia, was not damaged by the heat stimulus. The cutoff time was considered a 100% response to the thermal insult. Prior to drug treatment, each animal was tested to determine the baseline response. Thirty minutes after drug administration, animals were re-tested. Dose response experiments were performed to evaluate the potency of the test compound when various doses were administered at the point when maximal analgesia is observed.
The % MPE was calculated according to the following formula:
% MPE=[(Post drug latency−baseline latency)/(60 or 30−baseline latency)]×100
ED50 values were calculated from the mean % MPE values for each group using log dose-response curves by least-squares regression analysis.

[1] = Oral availability in humans with low versus normal CYP2D6 activity; assay type: in vivo; conditions: human with low CYP2D6 activity compared to humans with normal CYP2D6 activity (data not shown)

| SMILES | CYP2D6 contribution (CYP2D6) | CYP3A4 contribution (CYP3A4) | ED50 (mice; mouse hot plate) | other results |
| --- | --- | --- | --- | --- |
| Clc1cncc(CNCC[C@@]2(c3ccccn3)CCOC3(CCCC3)C2)c1 [Compound 267] | 8% | 55% | – | – |
| Cc1cccc(CNCC[C@@]2(c3ccc(F)cc3)CCOC3(CCCC3)C2)c1 [Compound 122, {2-[(9R)-9-(4-fluorophenyl)-6-oxaspiro[4.5]decan-9-yl]ethyl}[(3-methylphenyl)methyl]amine] | – | – | 1.1 mg/kg | analgesic effect in the mouse hot plate assay compared to morphine (mice): more robust analgesic effect |
| COc1ccsc1CNCC[C@@]1(c2ccccn2)CCOC2(CCCC2)C1 [Compound 140, [(3-methoxythiophen-2-yl)methyl]({2-[(9R)-9-(pyridin-2-yl)-6-oxaspiro[4.5]decan-9-yl]ethyl})amine] | 50% | 50% | – | oral availability [1]: substantially higher oral availability |
| Brc1csc(CNCC[C@@]2(c3ccccn3)CCOC3(CCCC3)C2)c1 [Compound 208] | 3% | 17% | – | – |
| c1ccc(CNCC[C@@]2(c3ccccn3)CCOC3(CCCC3)C2)cc1 [Compound 28] | – | – | 1.2 mg/kg | analgesic effect in the mouse hot plate assay compared to morphine (mice): more robust analgesic effect |
| FC(F)(F)c1cncc(CNCC[C@@]2(c3ccccn3)CCOC3(CCCC3)C2)c1 [Compound 271] | 3% | 45% | – | – |
| Fc1ccc([C@]2(CCNCc3ccccc3)CCOC3(CCCC3)C2)cc1 [Compound 81, benzyl({2-[(9R)-9-(4-fluorophenyl)-6-oxaspiro[4.5]decan-9-yl]ethyl})amine] | – | – | – | % MPE (mice; mouse hot plate, at 10 mg/kg SC): 100% at 10 |
| Cc1ccc(CNCC[C@@]2(c3ccc(F)cc3)CCOC3(CCCC3)C2)s1 [Compound 145] | – | – | 5.9 mg/kg | – |
| CN1CC[C@]23c4c5ccc(O)c4O[C@H]2[C@@H](O)C=C[C@H]3[C@H]1C5 [Morphine, reference compound] | – | – | 3.8 mg/kg | efficacy in the mouse hot plate (mice; at a dose of 10 mg/kg SC): full efficacy |
| FC(F)(F)c1ccnc(CNCC[C@@]2(c3ccccn3)CCOC3(CCCC3)C2)c1 [Compound 277] | >20% | >50% | – | – |
| Fc1cncc(CNCC[C@@]2(c3ccccn3)CCOC3(CCCC3)C2)c1 [Compound 265] | – | >50% | – | – |
| Cc1cccc(CNCC[C@@]2(c3ccccn3)CCOC3(CCCC3)C2)c1 [Compound 246] | 80% | 25% | – | – |
